Experimental data: publication PMC8464939, “Epicatechin Gallate as Xanthine Oxidase Inhibitor: Inhibitory Kinetics, Binding Characteristics, Synergistic Inhibition, and Action Mechanism” (Foods, 2021)
Read-outs that look alike come from different tables or passages of the source.

Experiments:
xanthine oxidase (XO) [1] = target: T1, xanthine oxidase (XO) (Bos taurus, UniProt P80457); experiment: XO activity assay (uric acid formation, absorbance at 293 nm); format: biochemical, bovine
xanthine oxidase (XO) [2] = target: T1, xanthine oxidase (XO); experiment: Kinetic analysis of enzyme-catalyzed reaction (Lineweaver–Burk); format: biochemical, bovine
Excerpt: The same determination method of enzyme activity was used to conduct the inhibition kinetics analysis of ECG on XO. In the presence of a series of different concentrations of ECG, the concentration of XO or xanthine was changed to determine the catalytic rate, and then the inhibition type was ascertained by the Lineweaver-Burk plots in double reciprocal form. […] Km, Ki, and α are on behalf of the Michaelis-Menten constant, dissociation constant, and apparent coefficient, respectively.

xanthine oxidase (XO) [3] = target: T1, xanthine oxidase (XO); experiment: Inhibition of O2− radical generated by XO (NBT); format: biochemical, bovine; conditions: XO 0.7 μM
Procedure: The O2^− radicals generated during the catalytic process of XO could also be used to assess the antioxidant activity of ECG. The XO (0.70 μM) and different concentrations of ECG were mixed in Tris–HCl buffer and incubated at 37 °C for 30 min. Then, NBT (55.0 μM) and xanthine were added to the samples, respectively, and the absorbance of the mixture at 560 nm was recorded. A small amount of Triton X−100 (0.2%, v/v) was added for solubilization and the control group was equal volume ethanol.

[4] = DPPH radical scavenging activity assay; conditions: ECG 15 μM
Procedure: The DPPH free radical scavenging activity of ECG was tested according to Aalim et al. with slight modification. DPPH was dissolved in ethanol, and then different concentrations of ECG were added to prepare a series of samples. The mixed solutions were protected from light and reacted for 30 min. The absorbance of the samples at 517 nm was determined by an enzyme-labeled instrument (Varioskan LUX, Thermo Fisher Scientific, Waltham, MA, USA). An equal volume of ethanol was used as a control. The free radical scavenging activity of ECG was assessed by the change of percentage in absorbance.

xanthine oxidase (XO) [5] = target: T1, xanthine oxidase (XO); experiment: Fluorescence microscopy imaging of XO; parameters: species or system bovine; conditions: XO 1.0 μM; ECG 40.0 μM
Procedure: The free XO solution and the mixture of ECG and XO were prepared and incubated for 1h at room temperature. The appropriate amount of samples was placed on a microscope slide, and then the structural changes of XO induced by ECG were observed through a fluorescent inverted microscope with an excitation light of FBW (IX73, Olympus, Japan).

XO = conditions: cited from earlier work
xanthine oxidase (XO) [6] = target: T1, xanthine oxidase (XO); experiment: CD spectra: secondary structure of XO; parameters: species or system bovine
Procedure: The CD spectrometer (Bio−Logic MOS 450, Claix, France) was used to determine the CD spectra to analyze the effects of ECG on the secondary structure of XO. The free XO (1.0 μM) and its mixed solutions with different molar ratios ([ECG]/[XO], 0:1, 10:1, 20:1 and 40:1) were prepared, and then the CD spectra of the samples in the range of 190−250 nm were measured in a nitrogen stream. The specific secondary structure contents were analyzed by our previous study.

xanthine oxidase (XO) [7] = target: T1, xanthine oxidase (XO); experiment: Fluorescence titration experiments (quenching, binding, thermodynamics, 3D fluorescence); parameters: species or system bovine
Procedure: At three experimental temperatures (25, 31, and 37 °C), XO (1.0 μM) diluted in the Tris–HCl solution was placed in a 1.0 cm cuvette, and then ECG (0–30.0 μM) was added into XO solution successively to conduct the fluorescence titration experiments. After each addition, the fluorescence spectra of the mixed solutions within 300–500 nm were scanned at an excitation wavelength of 280 nm using a fluorescence photometer (F–7000, Hitachi, Japan). The width of the excitation and emission slit was 2.5 nm, respectively. Similarly, the synchronous fluorescence spectra of XO titrated by ECG were measured by setting the difference between excitation and emission wavelength (Δλem) to 15 and 60 nm, respectively. The free XO solution and a mixed sample of XO and ECG were prepared, and then the three-dimensional (3D) fluorescence spectra of the samples were determined; the scanning ranges of both excitation and emission wavelength were 200–600 nm. All fluorescence data were corrected to subtract the internal filtering effect by the following equation [34]:(4) Fc=Fme^(A1+A2)/2 where Fc and Fm represent the […] fluorescence intensity values, respectively; A1 and A2 are the absorbances of ECG at the excitation and emission wavelengths, respectively.
The changes of fluorescence spectra can reflect the binding characteristics between inhibitor and enzyme. […] The specific quenching mechanism of ECG on XO was determined by the relationship between quenching constant (KSV) and temperature, and the values of KSV and Kq (the quenching rate constant) were calculated by the well-known Stern–Volmer equation [44]. (6) F0/F=1+KSVQ=1+Kqτ0Q where F and F0 represent the fluorescence intensity values of XO with and without ECG, respectively; Q is the concentration of ECG; the value of the average fluorescence lifetime of fluorophore for biomacromolecules (τ0) is 10^−8 s. […] Furthermore, the binding constant (Ka) and the number of binding sites (n) were calculated through the following formula:(7) logF0−F/F=nlogKa−nlog1/Qt−(F0−F)Pt/F0 where [Qt] and [Pt] represent the concentrations of ECG and XO, respectively. […] The n values were close to 1, reflecting that XO had only one class of binding sites for ECG, which was consistent with the conclusions of enzyme kinetics analysis.
The values of thermodynamic parameters of the binding process between ECG and XO, such as entropy change (ΔS°), enthalpy change (ΔH°), and free energy change (ΔG°), were obtained by the van ‘t Hoff equation:
(9) ΔG=ΔH°−TΔS° where R is the gas constant (8.314 J mol^−1 K^−1), and T is the temperatures of fluorescence titration experiments (25, 31, and 37 °C). […] A similar study reported that the formation of the ECG–α-amylase complex was mainly driven by van der Waals and hydrogen bonds.

polyphenoloxidase = tested on: polyphenoloxidase; parameters: method as in earlier work; conditions: ref 41 (Sae-Leaw et al.); cited from earlier work
[8] = O2− radical scavenging activity assay (PMS–NADH system, NBT); conditions: ECG 45.0 μM
Procedure: NBT could be reduced to blue formazan by O2^− radical produced by the PMS–NADH system; thus, this method was used to evaluate the O2^− radical scavenging activity of ECG [33]. The reaction solutions were prepared by mixing NBT (55.0 μM), NADH (0.27 mM), and different concentrations of ECG, and then 0.2 mL PMS (0.155 mM) was added to initiate the reaction. After the samples were incubated for 15 min, the absorbance at 560 nm was measured. Ethanol was used instead of ECG as the blank group, and the values of decreasing percentage in absorbance were calculated to analyze the scavenging activity of ECG.

[9] = read-out: IC50 for inhibiting XO activity
[10] = previous study of the authors, read-out: IC50 for inhibiting XO activity

T1 sequence (P80457 whole entry): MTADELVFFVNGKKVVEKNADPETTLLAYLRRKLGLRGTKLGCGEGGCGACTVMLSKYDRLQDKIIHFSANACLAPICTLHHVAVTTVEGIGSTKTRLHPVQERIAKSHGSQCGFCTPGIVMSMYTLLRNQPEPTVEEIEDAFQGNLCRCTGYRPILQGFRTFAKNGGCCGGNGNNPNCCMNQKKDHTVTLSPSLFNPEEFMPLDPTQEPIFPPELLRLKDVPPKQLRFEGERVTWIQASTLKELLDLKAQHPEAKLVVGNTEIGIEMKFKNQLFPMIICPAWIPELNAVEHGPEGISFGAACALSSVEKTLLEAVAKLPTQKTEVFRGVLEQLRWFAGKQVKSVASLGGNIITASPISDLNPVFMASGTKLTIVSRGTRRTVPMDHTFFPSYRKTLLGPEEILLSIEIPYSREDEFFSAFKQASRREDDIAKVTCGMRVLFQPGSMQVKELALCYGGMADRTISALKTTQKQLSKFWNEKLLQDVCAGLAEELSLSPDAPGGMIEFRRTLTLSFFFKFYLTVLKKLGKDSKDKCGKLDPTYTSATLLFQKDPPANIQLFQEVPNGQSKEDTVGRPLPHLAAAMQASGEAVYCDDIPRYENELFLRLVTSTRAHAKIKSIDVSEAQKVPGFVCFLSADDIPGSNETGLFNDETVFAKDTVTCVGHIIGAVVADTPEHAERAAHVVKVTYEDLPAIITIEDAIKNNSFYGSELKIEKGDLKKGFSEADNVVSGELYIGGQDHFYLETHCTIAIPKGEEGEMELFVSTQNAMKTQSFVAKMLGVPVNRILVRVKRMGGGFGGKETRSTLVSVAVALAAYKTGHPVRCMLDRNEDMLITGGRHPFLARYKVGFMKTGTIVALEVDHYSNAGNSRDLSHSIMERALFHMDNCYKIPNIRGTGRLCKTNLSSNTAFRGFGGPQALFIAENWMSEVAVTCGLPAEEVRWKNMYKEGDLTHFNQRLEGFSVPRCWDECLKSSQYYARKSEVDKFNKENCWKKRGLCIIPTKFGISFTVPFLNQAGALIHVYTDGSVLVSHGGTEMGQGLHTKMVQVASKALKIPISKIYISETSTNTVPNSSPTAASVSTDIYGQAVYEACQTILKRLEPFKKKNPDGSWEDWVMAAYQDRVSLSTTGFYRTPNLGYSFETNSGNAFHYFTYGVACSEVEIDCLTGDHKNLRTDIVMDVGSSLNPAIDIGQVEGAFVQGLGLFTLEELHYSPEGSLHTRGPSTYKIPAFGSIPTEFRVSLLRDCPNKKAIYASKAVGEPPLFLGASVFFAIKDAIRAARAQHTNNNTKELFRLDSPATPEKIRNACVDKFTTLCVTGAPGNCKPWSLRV

O=C(O[C@@H]1Cc2c(O)cc(O)cc2O[C@@H]1c1ccc(O)c(O)c1)c1cc(O)c(O)c(O)c1 [ECG, Epicatechin gallate]
activity of XO at high ECG concentration (xanthine oxidase (XO) [1]; ECG 300 μM): almost completely inhibited | IC50 (xanthine oxidase (XO) [1]; pH 7.4, XO 0.075 μM, xanthine 50.0 μM, read-out: IC50 for inhibiting XO activity): 19.3 ± 0.45 µM | inhibition type (xanthine oxidase (XO) [2]; Lineweaver–Burk plots): mixed inhibitor | αKi (xanthine oxidase (XO) [2]; XO−xanthine complex): 82.4 ± 0.70 µM | Ki (xanthine oxidase (XO) [2]; dissociation constant, free XO): 5.27 ± 0.24 µM | reversibility of inhibition (xanthine oxidase (XO) [2]; plots of ν vs. [XO]): reversibly inhibited | IC50 (xanthine oxidase (XO) [3]; read-out: dose at which relative inhibition rate of production of O2− radical reached 50%): 18.5 µM | relative inhibition rate of generation of O2− radical from XO catalysis (final plateau) (xanthine oxidase (XO) [3]; xanthine 0.1, 0.2, 0.5 mM): 90% | DPPH radical scavenged [4]: 90% | average area of green bright spots of XO with ECG (xanthine oxidase (XO) [5]): 172.31 μm^2 | IC50 (XO; ref 12 (Yuan et al.), read-out: IC50 inhibiting XO): 0.26 µM | Random Coil content of XO (xanthine oxidase (XO) [6]; [ECG]:[XO] 10:1): 25.12 ± 0.69% | α-Helix content of XO (xanthine oxidase (XO) [6]; [ECG]:[XO] 10:1): 10.83 ± 0.51% | β-Sheet content of XO (xanthine oxidase (XO) [6]; [ECG]:[XO] 10:1): 42.51 ± 0.41% | β-Turn content of XO (xanthine oxidase (XO) [6]; [ECG]:[XO] 10:1): 21.65 ± 0.94% | Random Coil content of XO (xanthine oxidase (XO) [6]; [ECG]:[XO] 20:1): 24.03 ± 0.31% | α-Helix content of XO (xanthine oxidase (XO) [6]; [ECG]:[XO] 20:1): 10.96 ± 0.62% | β-Sheet content of XO (xanthine oxidase (XO) [6]; [ECG]:[XO] 20:1): 43.41 ± 0.74% | β-Turn content of XO (xanthine oxidase (XO) [6]; [ECG]:[XO] 20:1): 21.59 ± 0.13% | Random Coil content of XO (xanthine oxidase (XO) [6]; [ECG]:[XO] 40:1): 22.51 ± 0.24% | α-Helix content of XO (xanthine oxidase (XO) [6]; [ECG]:[XO] 40:1): 11.83 ± 0.93% | β-Sheet content of XO (xanthine oxidase (XO) [6]; [ECG]:[XO] 40:1): 45.02 ± 0.22% | β-Turn content of XO (xanthine oxidase (XO) [6]; [ECG]:[XO] 40:1): 21.39 ± 0.25% | n values (xanthine oxidase (XO) [7]; 25, 31 and 37 °C): ~1 | Kq (quenching rate constant) (xanthine oxidase (XO) [7]; 25, 31 and 37 °C, compared with maximum scattering collision rate constant): > 2e+10 M⁻¹ s⁻¹ | Kd (xanthine oxidase (XO) [7]; 25, 31 and 37 °C, read-out: binding constant Ka, magnitude): ~100 µM | Ksv (xanthine oxidase (XO) [7]; 298 K): 1.76 ± 0.02 ×10^4 L mol^−1 | n (number of binding sites) (xanthine oxidase (XO) [7]; 298 K): 0.91 ± 0.01 | ΔG° (xanthine oxidase (XO) [7]; 298 K): -5.813 ± 0.0956 kcal/mol | Kd (xanthine oxidase (XO) [7]; 298 K, read-out: Ka (binding constant) (converted)): 54.9 µM | Ksv (xanthine oxidase (XO) [7]; 304 K): 1.32 ± 0.03 ×10^4 L mol^−1 | n (number of binding sites) (xanthine oxidase (XO) [7]; 304 K): 0.95 ± 0.02 | ΔG° (xanthine oxidase (XO) [7]; 304 K): -5.81 ± 0.0837 kcal/mol | Kd (xanthine oxidase (XO) [7]; 304 K, read-out: Ka (binding constant) (converted)): 66.2 µM | Ksv (xanthine oxidase (XO) [7]; 310 K): 1.15 ± 0.01 ×10^4 L mol^−1 | n (number of binding sites) (xanthine oxidase (XO) [7]; 310 K): 0.87 ± 0.02 | ΔG° (xanthine oxidase (XO) [7]; 310 K): -5.805 ± 0.0669 kcal/mol | Kd (xanthine oxidase (XO) [7]; 310 K, read-out: Ka (binding constant) (converted)): 81.3 µM | decrease of 3D fluorescence intensity of XO peak 1 (λex/λem = 280/340 nm) (xanthine oxidase (XO) [7]; XO 1.0 μM, ECG 15.0 μM): 34.36% | decrease of 3D fluorescence intensity of XO peak 2 (λex/λem = 230/335 nm) (xanthine oxidase (XO) [7]; XO 1.0 μM, ECG 15.0 μM): 47.59% | ΔH° (xanthine oxidase (XO) [7]; van 't Hoff, 298–310 K): -5.987 ± 0.0478 kcal/mol | ΔS° (xanthine oxidase (XO) [7]; van 't Hoff, 298–310 K): −2.44 ± 0.07 J mol^−1 K^−1 | inhibition type on polyphenoloxidase (polyphenoloxidase): mixed inhibitory effect | scavenging rate of O2− radical generated by PMS–NADH system [8]: 55.64%

O=C(O)/C=C/c1ccc(O)c(O)c1 [caffeic acid]
IC50 (XO; [9]): 7160 µM

O=C(/C=C/c1ccc(O)c(O)c1)O[C@@H]1C[C@](O)(C(=O)O)C[C@@H](O)[C@H]1O [chlorogenic acid]
IC50 (XO; [9]): 6490 µM

O=c1c(O)c(-c2ccc(O)cc2)oc2cc(O)cc(O)c12 [kaempferol]
inhibition manner on XO (XO; previous study of the authors): reversibly inhibited XO activity in a competitive manner

O=c1c(O)c(-c2cc(O)c(O)c(O)c2)oc2cc(O)cc(O)c12 [myricetin]
IC50 (XO; [10]): 8.66 µM

O=c1c(O)c(-c2ccc(O)c(O)c2)oc2cc(O)cc(O)c12 [quercetin]
IC50 (XO; [10]): 7.23 µM
